Source: PubChem BioAssay (NCI)
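A five-concentration, 48-hour dose response in 96-well plates underlies each endpoint, interpolated linearly between surrounding concentrations. The concentration for full growth arrest is given as TGI.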

How the values were obtained:
Assay in all cases: NCI-60 cell line screen, 48 h
[1] = tested on: OVCAR-4 ovarian
[2] = tested on: SW-620 colon
[3] = tested on: HOP-92 NSCLC
[4] = tested on: SNB-19 CNS
[5] = tested on: PC-3 prostate
[6] = tested on: IGROV1 ovarian
[7] = tested on: TK-10 renal
[8] = tested on: OVCAR-5 ovarian
[9] = tested on: NCI-H23 lung
[10] = tested on: A498 renal
[11] = tested on: KM12 colon

Row | SMILES | TGI [1] [µM] | TGI [2] [µM] | TGI [3] [µM] | TGI [4] [µM] | TGI [5] [µM] | TGI [6] [µM] | TGI [7] [µM] | TGI [8] [µM] | TGI [9] [µM] | TGI [10] [µM] | TGI [11] [µM]
1 | N#CC(N)c1ccc(OCCCCCCCCCCOc2ccc(C(N)C#N)cc2)cc1 (stereo not drawn) | > 100 | > 100 | > 100 | > 100 | > 100 | > 100 | > 100 | > 100 | > 100 | > 100 | > 100
2 | FC(F)(F)c1ccc(Cc2nc3cc4ccccc4cc3[nH]2)cc1 | > 100 | > 100 | 47.8 | > 100 | > 100 | > 100 | > 100 | > 100 | > 100 | > 100 | > 100
3 | O=C(NC(Cl)(C(F)(F)F)C(F)(F)F)c1ccc(F)cc1 | > 100 | > 100 | > 100 | > 100 | > 100 | > 100 | > 100 | > 100 | > 100 | > 100 | > 100
4 | CCCCCCCCCCCCCCCCCCNc1ccn(C2OC(COP(=O)(O)OCC3OC(n4cc(C)c(=O)[nH]c4=O)CC3F)C(O)C2O)c(=O)n1 (stereo not drawn) | 42.5 | 12.3 | 37.5 | 14.1 | 5.38 | 17.9 | 9.9 | 6.48 | 17.9 | > 60.2 | 14.3
5 | C[Si](C)(C)C#Cc1cc(-c2nc3ccccc3s2)ccc1N | 29.8 | 35 | 27.8 | 34.6 | 34.2 | 13.2 | 26.2 | 33.5 | 40.6 | 35 | 34.2
6 | CC1(C)CC(O)C2=C(O1)C(=O)c1ncccc1C2=O (stereo not drawn) | 3.15 | 3.56 | 5.44 | 9.2 | 9.57 | 6.14 | 20.1 | 3.72 | 3.24 | 18.6 | 8.17
7 | C1=NCCN2CCN(CCN=Cc3ccccc3OCc3cccc(n3)COc3ccccc31)CC2 | 26.6 | > 50 | 41.6 | > 50 | > 50 | 37.2 | 24.9 | 28.3 | > 50 | > 50 | 26.2
8 | Clc1ccc(Nc2nnc(CCCCCCCCc3nnc(Nc4ccc(Cl)cc4)o3)o2)cc1 | > 100 | > 100 | 98.7 | > 100 | > 100 | > 100 | > 100 | > 100 | 90.6 | > 100 | 99.2
